The record followed here is PubChem BioAssay (NCI).

Among the test systems are HT29 colon; A549 NSCLC; EKVX NSCLC; COLO 205 colon; SK-MEL-2 melanoma; NCI-H23 lung; KM20L2 colon; OVCAR-4 ovarian; SNB-19 CNS; CAKI-1 renal; RXF 393 renal; SN12C renal; SF-295 CNS; A498 renal.
Assay in all cases: NCI-60 cell line screen, 48 h

Values joined by “and” are separate entries in the source; they are usually repeats but may differ in a detail not shown here. Identical values can stand only once.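 48-hour exposure; five concentrations; linearly interpolated endpoints. The concentration for 50% growth inhibition is given as GI50. Definition used: TGI = concentration required for complete inhibition of growth.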 Bounds are passed on as bounds.

Take `CC1(C)Cc2c(C#N)c(N)c3c(c2CO1)C(=O)OC3=O`: the TGI with HT29 colon, with A549 NSCLC, in the experiment on EKVX NSCLC, with COLO 205 colon, with SK-MEL-2 melanoma and in the experiment with NCI-H23 lung was over 100 µM throughout. For the same compound, the TGI in the experiment with KM20L2 colon, in the experiment with OVCAR-4 ovarian, with SNB-19 CNS, with CAKI-1 renal, in the experiment on RXF 393 renal and with SN12C renal was over 100 µM in each case.
Take `O=C(N/N=C/c1cc(Cl)cc(Cl)c1[O-])c1ccccc1O.O=C(N/N=C/c1cc(Cl)cc(Cl)c1[O-])c1ccccc1O.[Zn+2]`: the TGI in the experiment with HT29 colon came out at 13.7 µM; with A549 NSCLC, 13.1 µM; with EKVX NSCLC it was 9.88 µM; with SK-MEL-2 melanoma, 11.5 µM; in the experiment with NCI-H23 lung, 11.2 µM; with KM20L2 colon, 5.17 µM. The TGI with OVCAR-4 ovarian came to 2.4 µM; in the experiment with SF-295 CNS, 5.21 µM; in the experiment with SNB-19 CNS, 15 µM; in the experiment with CAKI-1 renal, 8.45 µM; with RXF 393 renal, 11.6 µM. Also, the GI50 with A549 NSCLC was 0.527 µM; in the experiment with EKVX NSCLC, 0.68 µM; in the experiment with SK-MEL-2 melanoma, 0.591 µM; with NCI-H23 lung, 0.56 µM; with KM20L2 colon, 2.05 µM.
In the case of `S=C1CC(c2ccccc2)Sc2ccccc2N1` (stereo unspecified), the TGI with HT29 colon, in the experiment on EKVX NSCLC, in the experiment with COLO 205 colon, in the experiment with NCI-H23 lung, in the experiment with OVCAR-4 ovarian and in the experiment with SF-295 CNS was over 100 µM in each case. Besides, the TGI in the experiment on SNB-19 CNS is over 100 µM; in the experiment with CAKI-1 renal it was over 100 µM; in the experiment with RXF 393 renal, 75.8 µM; with SN12C renal, over 100 µM.
As to `CC(=O)OC/C=C\Cn1nc(Br)c(=O)[nH]c1=O`, the TGI amounted to 32.3 µM in the experiment with A549 NSCLC; 34.5 µM in the experiment with EKVX NSCLC; 29.6 µM with COLO 205 colon; 30.6 µM in the experiment on SK-MEL-2 melanoma; 32.5 µM with NCI-H23 lung; 34.7 µM in the experiment with A498 renal. The TGI in the experiment on SNB-19 CNS turned out to be 37.7 µM; in the experiment with CAKI-1 renal it was 22.8 µM; with RXF 393 renal, 27.1 µM; in the experiment with SN12C renal, 55.2 µM.
Turning to `CC(=O)NC(c1nc2cc(C)c(C)cc2[nH]1)c1nc2cc(C)c(C)cc2[nH]1`, the TGI with HT29 colon is 78.1 µM; in the experiment with A549 NSCLC, 65.2 µM; in the experiment with EKVX NSCLC it was 84.8 µM; in the experiment on COLO 205 colon, 43.4 µM; with SK-MEL-2 melanoma, over 100 µM; in the experiment on NCI-H23 lung, over 100 µM. Also, the TGI was 72.8 µM with OVCAR-4 ovarian; 49.1 µM with SF-295 CNS; 35.4 µM in the experiment with A498 renal; over 100 µM with SNB-19 CNS; 52.2 µM with CAKI-1 renal; 84.8 µM with RXF 393 renal. The same compound had a TGI in the experiment on SN12C renal of 77.4 µM.
For `C/C=C/C1=CC(=O)C(O)C1O` (stereo unspecified), the TGI was 102 µM in the experiment with HT29 colon; 107 µM in the experiment on A549 NSCLC; 148 µM in the experiment on EKVX NSCLC; 51.8 µM in the experiment with COLO 205 colon; 133 µM in the experiment on SK-MEL-2 melanoma; over 77.9 µM in the experiment with NCI-H23 lung. In addition, the TGI in the experiment on KM20L2 colon is over 80.9 µM; in the experiment with OVCAR-4 ovarian, 111 µM; in the experiment with SF-295 CNS, 118 µM; in the experiment with A498 renal, 16.7 µM; with SNB-19 CNS it was 124 µM; with CAKI-1 renal, 43.7 µM. For the same compound, the TGI with RXF 393 renal is 44 µM; in the experiment on SN12C renal, 64 µM.
As for `CC1CCC2(C(=O)O)CCC3(C)C(=CCC4C5(C)CCC(O)C(C)(C)C5CCC43C)C2C1C` (stereo unspecified), the TGI in the experiment on HT29 colon was 22.9 µM and 37.7 µM; in the experiment with A549 NSCLC, 21.4 µM and > 100 µM; in the experiment with EKVX NSCLC it was 23.2 µM and 28.6 µM; in the experiment with COLO 205 colon, 26.3 µM and 28.3 µM; in the experiment with SK-MEL-2 melanoma it was 19 µM and 30.2 µM; in the experiment on NCI-H23 lung, 24.4 µM and 34.3 µM. Moreover, the TGI in the experiment on KM20L2 colon was 17.5 µM; with OVCAR-4 ovarian, 24.2 µM and 31.9 µM; with SF-295 CNS, 10.2 µM; in the experiment on A498 renal, 23.3 µM and 45.3 µM; with SNB-19 CNS, 17.9 µM; with CAKI-1 renal, 16.6 µM and 17.5 µM. Moreover, the TGI with RXF 393 renal is 16.4 µM and 38.3 µM; with SN12C renal, 18.9 µM and 36.1 µM. Further, the GI50 was 10.1 µM and 26.4 µM with A549 NSCLC; 7.07 µM and 22.6 µM in the experiment with A498 renal.
With `COc1cccc(/C=N/[N-]C(N)=O)c1[O-].[Ni+2].[OH3+].c1ccc(-c2ccccn2)nc1`, the TGI in the experiment on HT29 colon, in the experiment with A549 NSCLC, with EKVX NSCLC, in the experiment with COLO 205 colon, in the experiment with SK-MEL-2 melanoma and in the experiment with NCI-H23 lung was over 100 µM each time. Further, the TGI in the experiment on KM20L2 colon, with OVCAR-4 ovarian, with SF-295 CNS, in the experiment on CAKI-1 renal, in the experiment with RXF 393 renal and in the experiment with SN12C renal was over 100 µM throughout.
For `Cc1[nH]nc(N)c1C(N)=O`, the TGI in the experiment with HT29 colon, in the experiment with A549 NSCLC, in the experiment with EKVX NSCLC, in the experiment on COLO 205 colon, with SK-MEL-2 melanoma and in the experiment with NCI-H23 lung was over 100 µM each time. The TGI with KM20L2 colon, with OVCAR-4 ovarian, in the experiment with SF-295 CNS, in the experiment on A498 renal, with SNB-19 CNS and with CAKI-1 renal was over 100 µM in each case. The TGI in the experiment with RXF 393 renal was 56.1 µM; in the experiment with SN12C renal, over 100 µM.
`CNC(=O)SCC(N)C(=O)O` (stereo unspecified): the TGI in the experiment with HT29 colon, in the experiment on A549 NSCLC, in the experiment with EKVX NSCLC, with COLO 205 colon, with SK-MEL-2 melanoma and in the experiment with NCI-H23 lung was over 100 µM in each case. For the same compound, the TGI with KM20L2 colon, in the experiment with OVCAR-4 ovarian, in the experiment with SF-295 CNS, in the experiment with A498 renal, in the experiment on SNB-19 CNS and with CAKI-1 renal was over 100 µM in each case. Further, the TGI in the experiment with RXF 393 renal and with SN12C renal was over 100 µM in each case.
Take `CCOC(=O)c1c(Cl)nc2ccccc2c1N=[N+]=[N-]`: the TGI was 34.2 µM in the experiment on HT29 colon; over 100 µM in the experiment on A549 NSCLC; over 100 µM in the experiment with EKVX NSCLC; 36.1 µM with COLO 205 colon; 71.5 µM in the experiment with SK-MEL-2 melanoma; over 100 µM in the experiment on NCI-H23 lung. Also, the TGI in the experiment on OVCAR-4 ovarian is 31.7 µM; in the experiment with SF-295 CNS, over 100 µM; in the experiment on A498 renal, over 100 µM; in the experiment with SNB-19 CNS, over 100 µM; with CAKI-1 renal, 43.4 µM; with RXF 393 renal, over 100 µM. The compound further came in with a TGI in the experiment with SN12C renal of 30.7 µM.
With `OC1CCOc2ccccc21` (stereo unspecified), the TGI in the experiment with HT29 colon, in the experiment with A549 NSCLC, with EKVX NSCLC, in the experiment with COLO 205 colon, in the experiment on SK-MEL-2 melanoma and with NCI-H23 lung was over 100 µM throughout. For the same compound, the TGI in the experiment on KM20L2 colon, in the experiment with OVCAR-4 ovarian, in the experiment on SNB-19 CNS, with CAKI-1 renal, in the experiment on RXF 393 renal and in the experiment on SN12C renal was over 100 µM each time.
